# Where two headings read alike, the source gives them in different places.
# What was measured:
# [1] = system: adenylyl cyclase; assay: Cell culture test - cAMP assay; assay type: cell-based; details: versus forskolin dissolved in DMSO; FIG. 4 and summary
# Description: The method was performed at the Institute of Pharmacology, Medical University […] of Vienna, Prof. Michael Freissmuth. The forskolin-CD complex was compared with an established method, where forskolin is dissolved and diluted in DMSO. The method has been described previously (Hussain F, et al., BMC Pharmacology 11 (2013), Suppl 2, A6) and is a test platform for the assessment of the chemical induction of stem cells.
# Also, the lack of DMSO, which is considered to be a PDE inhibitor (see above), had no […] effect on the results based on preliminary theoretical and practical aspects. The following batches were tested in aliquot molar concentrations as an activator of adenylyl cyclase: […]
# [2] = Maximum solubility of forskolin in aqueous hydroxypropyl-cyclodextrin solutions (Laurenza et al., 1987); assay type: physicochemical
# From the text: Aqueous solutions of forskolin had also been produced by dissolving forskolin in solutions of hydroxypropyl-γ-cyclodextrin.
# [3] = cited from earlier work
Structure (SMILES),activation of adenylyl cyclase [1],increase of solubility ([2]; in 40% (w/v) hydroxypropyl-ß-cyclodextrin),increase of solubility ([2]; in 40% (w/v) hydroxypropyl-γ-cyclodextrin),Maximum solubility of forskolin ([3]; in 40% (w/v) aqueous solution of hydroxypropyl-ß-cyclodextrin) [mM],Maximum solubility of forskolin ([3]; in 40% (w/v) aqueous solution of hydroxypropyl-γ-cyclodextrin) [mM]
COC(=O)[C@@H]1C[C@H](OC(C)=O)C(=O)[C@H]2[C@@]1(C)CC[C@H]1C(=O)O[C@H](c3ccoc3)C[C@]21C [salvinorin A],Inactive,–,–,–,–
COC(=O)[C@@H]1C[C@H](O)C(=O)[C@H]2[C@@]1(C)CC[C@H]1C(=O)O[C@H](c3ccoc3)C[C@]21C [salvinorin B],Inactive,–,–,–,–
"C=C[C@@]1(C)CC(=O)[C@]2(O)[C@@]3(C)[C@@H](O)CCC(C)(C)[C@@H]3[C@H](O)[C@H](OC(C)=O)[C@@]2(C)O1 [forskolin, 7-beta-acetoxy-8,13-epoxy-1-alpha, 6-beta, 9-alpha-trihydroxylabd-14-en-11-one]",–,approx. 16 fold,approx. 65 fold,2.5,9.8
